This note sets out measurements from US7671054B1, “Reverse-turn mimetics and method relating thereto” (Choongwae Pharma Corporation, priority 2001, dated 2010).

The test system of one assay is caspase 2. Nature of the assay: Caspase 2 activity in cultured tumor cells. The format is cell-based. The note with it: co-treatment of stausporine (0.5 μM) and Compound D.
For assay [1], the system named is PC-12 cells overexpressing mutant PS-1/L286V. The experiment in a line: Neuronal differentiation and quantitation of neurite outgrowth. It is filed as cell-based, Rat. The note with it: PS-1/L286V mutant PC-12 cells. On the procedure:
Cell Differentiation. Cell culture dishes were pre-coated overnight with 0.25 mg/ml collagen (Cohesion, Calif.), 10 μg/ml Poly-L-Lysine (Sigma-Aldrich, St. Louis, Mo.) and 12 μg/ml Polyethyleneimine (ICN, La Mesa, Calif.). Cells were cultured on coated dishes at 15,000 cells/cm^2, and differentiated into a neuron-like phenotype by incubation in medium with reduced serum (1% fetal bovine serum), containing 50 ng/ml nerve growth factor (NGF) (Sigma-Aldrich) for 10 days. NGF-containing medium was changed every 2-3 days.
Differentiated PC-12/L286V cells were treated with increasing concentrations of this compound for 4 hours. Transfection was then initiated after this treatment period.
Quantitation of Neurite Outgrowth. Cell counts were taken from six randomly chosen microscopic fields (10×). […] The number of cells with such outgrowths was then expressed as a percentage of the total number of cells. Values obtained were from duplicates of three independent experiments.

SMILES strings stand for the structures. “Also recorded” adds a separate entry of the source.

Regarding `O=C1[C@H](Cc2ccc(O)cc2)N2C(=O)CCN(C(=O)NCc3ccccc3)[C@H]2CN1Cc1cccc2ccccc12` [Compound D], the “caspase 2 activity, co-treatment” value with caspase 2 was “not a synergic stimuation of the caspase 2 activity”. Besides, the “percentage of cells bearing neurites greater than twice the length of the cell body” value in assay [1] (10 μM) is recorded as “substantially increased the percentage of cells bearing neurites; also recorded: significantly increased”. For the same compound, in assay [1] (10 μM plus NGF, 10 days), the “neurite outgrowth and differentiation” value was “essentially normal neurite outgrowth and differentiation; also recorded: phenotypically corrects deficient neuronal differentiation”.
